In patent US6737383B1, “Herbicidal oxadiazolidines” (priority 1999, dated 2004):

What was measured:
[1] = tested on: crabgrass; experiment: Test B pre/postemergence crabgrass; type: in vivo, Digitaria sanguinalis
Summary of the method: (§1)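 Herbicidal effect was estimated by eye on a ten-point control scale after plants spent twelve to sixteen days in a greenhouse following soil or foliar treatment. Foliar sprays targeted plants at one to four leaves; all doses were formulated in a non-phytotoxic solvent with surfactant.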

[2] = tested on: blackgrass; experiment: Test E blackgrass; type: in vivo, Alopecurus myosuroides; conditions: Preemergence; for Blackgrass plant response rating (0 to 100 scale): Rate 250 g/ha
[3] = tested on: winter wheat; experiment: Test E winter wheat; type: in vivo, Triticum aestivum; conditions: Postemergence
Summary of the method: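 Compounds formulated in non-phytotoxic solvent mixture with surfactant; for postemergence, sprayed on plants at 1- to 4-leaf stage grown in 60:40 sandy loam/greenhouse potting mix. Kept in greenhouse ~21 to 28 days, then visually rated against untreated controls.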

[4] = tested on: Italian ryegrass; experiment: Test E Italian ryegrass; type: in vivo, Lolium multiflorum; conditions: Preemergence; for I. Ryegrass plant response rating (0 to 100 scale): Rate 250 g/ha
[5] = tested on: wheat; experiment: Test B pre/postemergence wheat; type: in vivo, Triticum aestivum
Summary of the method: as §1

[6] = tested on: winter barley; experiment: Test E winter barley; type: in vivo, Hordeum vulgare; conditions: Preemergence; for Barley (winter) plant response rating (0 to 100 scale): Rate 250 g/ha
[7] = tested on: giant foxtail; experiment: Test B pre/postemergence giant foxtail; type: in vivo, Setaria faberii
Summary of the method: as §1

[8] = tested on: green foxtail; experiment: Test E green foxtail; type: in vivo, Setaria viridis; conditions: Preemergence; for Green foxtail plant response rating (0 to 100 scale): Rate 250 g/ha
[9] = tested on: duck salad; experiment: Test B flood test duck salad; type: in vivo, Heteranthera limosa
Summary of the method: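 Read-out is a visual response score from 0 (no effect) to 10 (complete control), assigned by comparison with untreated controls. Treatment was applied at the 2-leaf stage, and plants stayed in the greenhouse for twelve to sixteen days before scoring.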

[10] = tested on: wild oat; experiment: Test E wild oat; type: in vivo, Avena fatua; conditions: Preemergence; for Wild oat plant response rating (0 to 100 scale): Rate 250 g/ha
[11] = tested on: winter wheat; experiment: Test E winter wheat; type: in vivo, Triticum aestivum; conditions: Preemergence; for Wheat (winter) plant response rating (0 to 100 scale): Rate 250 g/ha
[12] = Preemergence, Rate 62 g/ha, scale of 0 to 10 where 0 is no effect and 10 is complete control
[13] = Preemergence, Rate 125 g/ha, 0 is no effect, 10 is complete control
[14] = Preemergence, Rate 250 g/ha, scale 0 to 10, 0 is no effect, 10 is complete control
[15] = Preemergence, Rate 500 g/ha, scale of 0 to 10 where 0 is no effect and 10 is complete control
[16] = Rate 62 g/ha, Postemergence, scale of 0 to 10 where 0 is no effect and 10 is complete control
[17] = Rate 125 g/ha, Postemergence, scale 0 to 10
[18] = Rate 500 g/ha, Postemergence, scale 0 to 10
[19] = Rate 1000 g/ha, 0 to 100 scale where 0 is no effect and 100 is complete control
[20] = Rate 62 g/ha, headed Pre-emergence (flood test species), scale 0 to 10 (0 no effect, 10 complete control)
[21] = Rate 125 g/ha, Pre-emergence, flood test species, scale 0 to 10 where 0 is no effect and 10 is complete control
[22] = Rate 250 g/ha, Pre-emergence, flood-test species, scale 0 to 10, 0 is no effect, 10 is complete control
[23] = Preemergence, Rate 250 g/ha, scale of 0 to 10 where 0 is no effect and 10 is complete control
[24] = Rate 125 g/ha, Postemergence, scale of 0 to 10 where 0 is no effect and 10 is complete control
[25] = Rate 125 g/ha, Preemergence, scale of 0 to 10 where 0 is no effect and 10 is complete control
[26] = Rate 250 g/ha, Postemergence, scale of 0 to 10 where 0 is no effect and 10 is complete control
[27] = Rate 500 g/ha, Postemergence, scale 0 to 10, 0 no effect, 10 complete control
[28] = Rate 500 g/ha, 0 to 100 scale where 0 is no effect and 100 is complete control
[29] = Rate 1000 g/ha, 0 to 100 scale, 0 no effect, 100 complete control

## Cc1ccccc1-n1c(=O)on(C(=O)N(c2ccccc2F)C(C)C)c1=O [Compound 204]
[1]; [12]
  Crabgrass plant response rating: 6
[1]; [13]
  Crabgrass plant response rating (0 to 10 scale): 8
[1]; [14]
  Crabgrass plant response rating: 8
[1]; [15]
  Plant response rating, Crabgrass: 8
[1]; [16]
  Crabgrass plant response rating: 0
[1]; [17]
  Crabgrass plant response rating: 0
[1]; Rate 250 g/ha, Postemergence
  Plant response rating (0 to 10; 0 is no effect, 10 is complete control), Crabgrass: 2
[1]; [18]
  Crabgrass plant response rating: 5
[2]
  Blackgrass plant response rating (0 to 100 scale): 55
[2]; [19]
  Plant response rating, Blackgrass: 95
[3]; Rate 1000 g/ha, 0 to 100 scale, 0 is no effect and 100 is complete control
  Plant response rating, Wheat (winter): 30
[4]
  I. Ryegrass plant response rating (0 to 100 scale): 50
[4]; [19]
  Plant response rating, I. Ryegrass: 65
[5]; [12]
  Wheat plant response rating: 0
[5]; [14]
  Wheat plant response rating: 0
[5]; [15]
  Plant response rating, Wheat: 2
[5]; [16]
  Wheat plant response rating: 0
[5]; [17]
  Wheat plant response rating: 0
[5]; Rate 250 g/ha, Postemergence
  Plant response rating (0 to 10; 0 is no effect, 10 is complete control), Wheat: 0
[6]
  Barley (winter) plant response rating (0 to 100 scale): 50
[6]; [19]
  Plant response rating, Barley (winter): 30
[7]; [12]
  Giant foxtail plant response rating: 7
[7]; [13]
  Giant foxtail plant response rating (0 to 10 scale): 9
[7]; [14]
  Giant foxtail plant response rating: 10
[7]; [15]
  Plant response rating, Giant foxtail: 10
[7]; [16]
  Giant foxtail plant response rating: 0
[7]; [17]
  Giant foxtail plant response rating: 0
[7]; Rate 250 g/ha, Postemergence
  Plant response rating (0 to 10; 0 is no effect, 10 is complete control), Giant foxtail: 0
[7]; [18]
  Giant foxtail plant response rating: 3
[8]
  Green foxtail plant response rating (0 to 100 scale): 75
[8]; [19]
  Plant response rating, Green foxtail: 100
[9]; [20]
  Ducksalad plant response rating: 0
[9]; [21]
  Ducksalad plant response rating: 0
[9]; [22]
  Ducksalad plant response rating: 0
[9]; Rate 500 g/ha, headed Pre-emergence (flood test species), scale 0 to 10 (0 no effect, 10 complete control)
  Plant response rating, Ducksalad: 0
[10]
  Wild oat plant response rating (0 to 100 scale): 50
[10]; [19]
  Plant response rating, Wild oat: 50
[11]
  Wheat (winter) plant response rating (0 to 100 scale): 30
[11]; [19]
  Plant response rating, Wheat (winter): 50

## Cc1ccccc1-n1c(=O)on(C(=O)N(c2cccc(F)c2)C(C)C)c1=O [Compound 269]
[1]; [12]
  Crabgrass plant response rating: 0
[1]; [23]
  Crabgrass plant response rating: 3
[1]; [15]
  Plant response rating, Crabgrass: 6
[1]; [24]
  Crabgrass plant response rating: 0
[1]; [25]
  Crabgrass plant response rating: 2
[1]; [26]
  Plant response rating, Crabgrass: 0
[1]; [27]
  Crabgrass plant response rating: 1
[2]
  Blackgrass plant response rating (0 to 100 scale): 40
[2]; [28]
  Plant response rating, Blackgrass: 30
[2]; [29]
  Plant response rating, Blackgrass: 40
[3]; [19]
  Plant response rating, Wheat (winter): 55
[3]; Rate 250 g/ha, 0 to 100 scale where 0 is no effect and 100 is complete control
  Wheat (winter) plant response rating: 50
[3]; Rate 500 g/ha, 0 to 100 scale, 0 is no effect, 100 is complete control
  Plant response rating, Wheat (winter): 40
[4]
  I. Ryegrass plant response rating (0 to 100 scale): 50
[4]; [28]
  Plant response rating, I. Ryegrass: 60
[4]; [29]
  Plant response rating, I. Ryegrass: 70
[5]; [12]
  Wheat plant response rating: 0
[5]; [23]
  Wheat plant response rating: 0
[5]; [15]
  Plant response rating, Wheat: 0
[5]; [24]
  Wheat plant response rating: 0
[5]; [25]
  Wheat plant response rating: 0
[5]; [26]
  Plant response rating, Wheat: 2
[5]; [27]
  Wheat plant response rating: 4
[6]
  Barley (winter) plant response rating (0 to 100 scale): 30
[6]; [28]
  Plant response rating, Barley (winter): 50
[6]; [29]
  Plant response rating, Barley (winter): 60
[7]; [12]
  Giant foxtail plant response rating: 3
[7]; [23]
  Giant foxtail plant response rating: 10
[7]; [24]
  Giant foxtail plant response rating: 0
[7]; [25]
  Giant foxtail plant response rating: 6
[7]; [26]
  Plant response rating, Giant foxtail: 0
[7]; [27]
  Giant foxtail plant response rating: 2
[8]
  Green foxtail plant response rating (0 to 100 scale): 60
[8]; [28]
  Plant response rating, Green foxtail: 70
[8]; [29]
  Plant response rating, Green foxtail: 100
[9]; [20]
  Ducksalad plant response rating: 0
[9]; [21]
  Ducksalad plant response rating: 0
[9]; [22]
  Ducksalad plant response rating: 0
[9]; Rate 500 g/ha, Pre-emergence, flood test species, scale 0 to 10 (0 no effect, 10 complete control)
  Ducksalad plant response rating: 0
[10]
  Wild oat plant response rating (0 to 100 scale): 70
[10]; [28]
  Plant response rating, Wild oat: 70
[10]; [29]
  Plant response rating, Wild oat: 70
[11]
  Wheat (winter) plant response rating (0 to 100 scale): 60
[11]; [28]
  Plant response rating, Wheat (winter): 40
[11]; [29]
  Plant response rating, Wheat (winter): 50
